# From patent publication US20180185374A1, “INHIBITORS OF MTOR KINASE AS ANTI-VIRAL AGENTS” (THE TRUSTEES OF PRINCETON UNIVERSITY, priority 2009, published 2018)
# pIC50: −log10 of the molar value. “Also recorded” adds a separate entry of the source.
# What was measured:
# MCMV = MCMV replication in MEFs, cell-free virus by TCID50; assay type: cell-based, murine cytomegalovirus; details: wild-type MEFs; 0.05 PFU/cell; rapamycin 20 nM, Torin1 250 nM
# HCMV [1] = experiment: HCMV multistep growth in serum-starved human fibroblasts, cell-free virus by TCID50; assay type: cell-based, human cytomegalovirus; details: day 10; 0.05 PFU/cell; rapamycin 20 nM, Torin1 250 nM
# mTOR = mTOR (Homo sapiens, UniProt P42345); details: read-out: IC50 of selective mTOR inhibitor; cited from earlier work
# [2] = system: panel of 140 protein kinases; details: read-out: IC50 against panel of 140 protein kinases; cited from earlier work
# PI3Ks = details: cited from earlier work
# human fibroblasts = experiment: trypan blue exclusion viability of confluent human fibroblasts treated with 4-PBA; assay type: cell-based; details: 8 days; up to highest dose tested
# Description: (§1) FIG. 11. 4-PBA is not toxic to uninfected or infected confluent human fibroblasts. (A) Fibroblasts were maintained in medium containing the indicated concentrations of 4-PBA for 8 days. The medium was replaced every other day throughout the time course. At the end of the treatment period, cell viability was measured by the trypan blue exclusion assay. Date points represent the mean of duplicate wells. (B) Fibroblasts were infected with HCMV at a multiplicity of 0.1 pfu/cell. Cells were fed every other day with fresh medium containing the indicated concentration of 4-PBA. At eight days post infection, cells were washed once with media, and then media lacking drug was added. Eight days later (16 days post infection) cell free virus in the supernatant was quantitated by the TCID50 method. Date points represent the mean of duplicate wells.
# (§2) Two experiments were performed to rule out the possibility that 4-PBA is simply toxic to the cells and inhibits HCMV indirectly by reducing cell viability (FIG. 11). In the first experiment (FIG. 11A) an assay for cell viability was performed on confluent human fibroblasts treated for eight days with different concentrations of the drug. […] Then the drug was removed and the yield of virus was determined 8 days later.
# HCMV [3] = experiment: 4-PBA reversibility: HCMV yield 8 days after drug removal, TCID50; assay type: cell-based, human cytomegalovirus; details: all doses tested; 8-day treatment; 16 days post infection
# Description: as §1, §2
# HCMV strain AD169 = experiment: HCMV AD169 replication in human fibroblasts treated with 4-PBA, TCID50; assay type: cell-based, human cytomegalovirus; details: 0.1 pfu/cell; day 8 post infection; range of 4-PBA doses
# Text: FIG. 10. 4-PBA inhibits HCMV replication in a dose-dependent manner. […] The medium with drug was replaced every other day. Cell-free and cell-associated virus was collected on day 8 post infection and titered by the TCID50 method. Data represent the log mean titer of duplicate samples.
# To explore the hypothesis that HCMV might actually require the UPR to occur in order to maintain cellular homeostasis despite high levels of expression of viral glycoproteins, HCMV-infected human fibroblasts (HFFs) were treated with an inhibitor of the UPR, the chemical chaperone sodium 4-phenylbutyrate (4-PBA).
structure (smiles),measurement,setting,value
CO[C@H]1C[C@@H]2CC[C@@H](C)[C@@](O)(O2)C(=O)C(=O)N2CCCC[C@H]2C(=O)O[C@H]([C@H](C)C[C@@H]2CC[C@@H](O)[C@H](OC)C2)CC(=O)[C@H](C)/C=C(\C)[C@@H](O)[C@@H](OC)C(=O)[C@H](C)C[C@H](C)/C=C/C=C/C=C/1C [rapamycin],MCMV replication,MCMV,no inhibitory effect
same,reduction of HCMV yield,HCMV [1],~8 fold
COC(=O)Nc1ccc(-c2nc(N3CCOCC3)c3cnn(C4CCN(C(=O)OC)CC4)c3n2)cc1 [WYE354],pIC50,mTOR,8.30
Cc1c(C(=O)N2CCOc3ccc(-c4ccc(N)nc4)cc3C2)ccc(S(C)(=O)=O)c1F [XL388],pIC50,[2],< 5.52
CNC(=O)Nc1ccc(-c2nc(N3CC4CCC(C3)O4)c3cnn(C4CCC5(CC4)OCCO5)c3n2)cc1 [WYE-125132],fold selective versus PI3Ks (PI3K),PI3Ks,"> 5,000 fold"
same,pIC50,mTOR,9.72
"O=C([O-])CCCc1ccccc1.[Na+] [4-PBA, sodium 4-phenylbutyrate]","cellular viability / toxicity, trypan blue exclusion",human fibroblasts,no effect on cellular viability; also recorded: not toxic
same,virus yield 8 days after drug removal,HCMV [3],recovered and produced a normal yield
same,HCMV replication / virus production,HCMV strain AD169,effectively inhibited virus replication in a dose-dependent manner; also recorded: inhibited virus production in a dose-dependent manner
O=C(Nc1ccc(-c2nc(N3CC4CCC(C3)O4)c3sccc3n2)cc1)NC1CC1 [Wyeth-BMCL-200910075-9b],fold selective versus PI3Ks (PI3K),PI3Ks,"> 1,000 fold"
same,pIC50,mTOR,9.15
